Measurements reported in patent US20140163026A1, “8-ETHYL-6-(ARYL)PYRIDO[2,3-D]PYRIMIDIN-7(8H)-ONES FOR THE TREATMENT OF NERVOUS SYSTEM DISORDERS AND CANCER” (Afraxis Holdings, Inc., priority 2011, published 2014).

Tests used:
Nf2−/− SC4 cells = assay: Growth inhibition of NF2 deficient cells (CellTiter-Glo); format: cell-based, mouse; conditions: 1 uM concentration for 72 hours, FIG. 4
Protocol: (§1) NF2 deficient cell lines were cultured in the appropriate medium. Once enough cells have propagated, plates of all adherent lines were seeded at 5,000-10,000 cells/well (depending on cell line) in a total volume of 50 μL, and plates of all suspension lines at 10,000-20,000 cells/well (depending on cell line) in a total volume of 50 μL. Plates were placed in a humidified cell culture incubator overnight to allow adherent cells to attach.
(§2) 10 mM stocks of each PAK inhibitor compound in DMSO were prepared. Dilutions were performed with media to provide 1% DMSO 2× stock solutions of each PAK inhibitor compound.
50 μL of all PAK inhibitor compound 2× stocks were added to appropriate wells already containing 50 μL of cells and medium to expose cells to the final concentrations of compounds required. 50 μL of media was added to media and cell control wells and 50 μL of mix to vehicle control wells. At the same time as drug exposure, a CTG (CellTiter-Glo Assay) assay was performed on the 0 hr plate to obtain a 0 hr count. […]
At the end of the 72 hour exposure period, plates were removed for a CTG assay from 37° C., 5% CO2 incubator and place on the bench at room temperature for 30 mins. […] Luminescence for each well was determined.
Growth inhibition percent was calculated using the following equation: (Growth %=(Sample Value−T0Ave)/(Max−T0Ave)*100). […]

[1] = tested on: NF2−/− mesothelioma cells (NCI-H226); assay: as above; format: cell-based; conditions: 0 μM-30 μM, 72 hours, FIG. 7
Protocol: as §1, §2
(§3) 50 μL of all PAK inhibitor compound 2× stocks were added to appropriate wells already containing 50 μL of cells and medium to expose cells to the final concentrations of compounds required. 50 μL of media was added to media and cell control wells and 50 μL of mix to vehicle control wells. At the same time as drug exposure, a CTG (CellTiter-Glo Assay) assay was performed on the 0 hr plate to obtain a 0 hr count. Cells were exposed to PAK inhibitor compounds or a DMSO control for 72 hours. Following the 72 hour exposure period, all remaining plates were assayed using CTG.
(§4) At the end of the 72 hour exposure period, plates were removed for a CTG assay from 37° C., 5% CO2 incubator and place on the bench at room temperature for 30 mins. 100 μL CTG reagent was added to each well, mixed for 2 minutes, followed by a further 10 minute incubation at room temperature. Luminescence for each well was determined.
(§5) Growth inhibition percent was calculated using the following equation: (Growth %=(Sample Value−T0Ave)/(Max−T0Ave)*100).
NF2^−/− mesothelioma cells (e.g., NCI-H226 cells) were treated with varying concentrations of a PAK inhibitor compound disclosed in Examples 33, 84, or 122.

EBC-1 cells = assay: Growth inhibition of PAK1 amplified NSCLC cells (CellTiter-Glo); format: cell-based; conditions: 0 μM-30 μM, 72 hours, FIG. 8
Protocol: as §1, with “The PAK1 amplified” for “NF2 deficient”
as §2
as §3, with “50” for “50 μL of all PAK inhibitor compound 2× stocks were added to appropriate wells already containing 50 μL of cells and medium to expose cells to the final concentrations of compounds required. 50”
as §4, §5

NCI-H520 cells = assay: as above; format: cell-based; conditions: 0 μM-30 μM, 72 hours, FIG. 9
Protocol: as §1, with “The PAK1 amplified” for “NF2 deficient”
as §2
as §3, with “50” for “50 μL of all PAK inhibitor compound 2× stocks were added to appropriate wells already containing 50 μL of cells and medium to expose cells to the final concentrations of compounds required. 50”
as §4, §5

SK-MES-1 cells = assay: as above; format: cell-based; conditions: 0 μM-30 μM, 72 hours, FIG. 10
Protocol: as §1, with “The PAK1 amplified” for “NF2 deficient”
as §2
as §3, with “50” for “50 μL of all PAK inhibitor compound 2× stocks were added to appropriate wells already containing 50 μL of cells and medium to expose cells to the final concentrations of compounds required. 50”
as §4, §5

[2] = tested on: Nf2−/− SC4 cells transplanted into the sciatic nerve sheath of NOD/SCID mice; assay: Orthotopic NF2 deficient schwannoma mouse model, tumor weight; format: in vivo; conditions: intraneural Nf2−/− cells, FIG. 5
Excerpt: The NF2 protein is absent in ˜100% of sporadic schwannomas. Thus, an NF2 deficient-schwanoma mouse model was generated and used to evaluate treatment of sporadic schwannomas with a PAK inhibitor compound disclosed herein.
Murine Nf2^−/− cells may be generated by various means. For example, NF2^−/− cells may be generated by administering an shRNA or siRNA targeting an Nf2 gene, thereby disrupting the Nf2 gene. In another example, NF2^−/− cells may be generated by using a Cre recombinase.
Nf2^−/− SC4 cells may be generated by using a Cre recombinase. Pure populations of embryonic SC4 cells were isolated from Nf 2^loxP/loxP− mice at about embryonic day 13.5. […]
Nf2^−/− cells (e.g., Nf2^−/− SC4 control cells) were transduced by lentiviruses carrying pLuc-mCherry and sorted by FACS. […] Tumor progression was monitored weekly by bioluminescence imaging (BLI) according to the manufacturer's instructions on an IVIS-200 system. The mice were sacrificed and the tumors from the vehicle control treated and PAK inhibitor treated mice were measured.
NF2^−/− cells (e.g., Nf2^−/− SC4 control cells) were transduced by lentiviruses carrying pLuc-mCherry and sorted by FACS. […] Tumor progression was monitored weekly by bioluminescence imaging (BLI) according to the manufacturer's instructions on an IVIS-200 system. […]
At various time points, treatment efficacy was determined. […]

NF2−/− Schwannoma cells = assay: Growth inhibition of NF2 deficient cells (CellTiter-Glo); format: cell-based; conditions: 1 uM concentration, FIG. 6
Protocol: as §1, §2, §3, §4, §5
NF2^−/− Schwannoma cells were treated with a DMSO control or a PAK inhibitor compound (1 uM concentration) disclosed in Examples 101, 122, or 190.

PAK1 = PAK1 (Homo sapiens, UniProt Q13153); assay: In vitro PAK inhibition assay (SelectScreen, Ser/Thr 19 peptide); format: biochemical
Sequence of PAK1 (Q13153 whole entry): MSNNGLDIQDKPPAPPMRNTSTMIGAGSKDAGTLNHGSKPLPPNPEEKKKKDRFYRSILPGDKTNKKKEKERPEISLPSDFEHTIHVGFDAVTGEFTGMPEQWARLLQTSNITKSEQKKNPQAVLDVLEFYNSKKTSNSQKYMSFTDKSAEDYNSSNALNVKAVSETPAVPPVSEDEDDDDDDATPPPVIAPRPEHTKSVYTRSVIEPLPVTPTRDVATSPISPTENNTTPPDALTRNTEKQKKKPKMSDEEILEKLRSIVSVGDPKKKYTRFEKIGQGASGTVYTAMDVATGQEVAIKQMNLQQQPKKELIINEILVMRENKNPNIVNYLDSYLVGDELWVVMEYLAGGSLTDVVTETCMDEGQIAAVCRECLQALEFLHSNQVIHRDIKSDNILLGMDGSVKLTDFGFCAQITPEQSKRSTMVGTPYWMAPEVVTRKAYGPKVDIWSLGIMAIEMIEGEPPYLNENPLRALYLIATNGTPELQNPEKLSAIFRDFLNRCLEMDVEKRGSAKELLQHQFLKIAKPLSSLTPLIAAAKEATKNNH
Outline: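 Ten-point, 3-fold compound series at 1% final DMSO were incubated with enzyme, Ser/Thr 19 peptide and ATP for 60 min at room temperature. Buffer was HEPES pH 7.5 (50 mM) with 10 mM MgCl2, 1 mM EGTA, 0.01% BRIJ-35. A 60 min development step preceded the fluorescence read converted to % phosphorylation.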

PAK2 (PAK65) = PAK2 (PAK65) (Homo sapiens, UniProt Q13177); assay: In vitro PAK inhibition assay (SelectScreen, Ser/Thr 20 peptide); format: biochemical
Sequence of PAK2 (PAK65) (Q13177 whole entry): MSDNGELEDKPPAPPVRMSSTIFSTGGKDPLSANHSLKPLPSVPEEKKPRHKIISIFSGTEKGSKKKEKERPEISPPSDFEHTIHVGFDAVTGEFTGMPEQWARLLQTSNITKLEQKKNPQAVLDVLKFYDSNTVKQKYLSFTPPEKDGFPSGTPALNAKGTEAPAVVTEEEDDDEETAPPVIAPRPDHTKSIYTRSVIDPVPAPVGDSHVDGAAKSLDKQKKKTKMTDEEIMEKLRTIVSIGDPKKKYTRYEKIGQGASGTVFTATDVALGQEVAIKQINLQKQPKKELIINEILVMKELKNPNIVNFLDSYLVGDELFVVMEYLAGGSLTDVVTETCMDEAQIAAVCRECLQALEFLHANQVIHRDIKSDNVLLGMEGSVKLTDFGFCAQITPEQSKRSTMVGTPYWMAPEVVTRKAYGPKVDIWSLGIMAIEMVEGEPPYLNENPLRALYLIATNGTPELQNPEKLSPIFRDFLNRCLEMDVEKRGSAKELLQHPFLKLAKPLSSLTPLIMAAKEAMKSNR
Outline: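 Ten-point threefold compound dilutions (1% DMSO) were incubated with PAK2 (0.29-6 ng) and Ser/Thr 20 substrate (2 μM) for 60 min at room temperature in HEPES pH 7.5 buffer with MgCl2, EGTA and BRIJ-35.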

PAK3 = PAK3 (Homo sapiens, UniProt O75914); assay: as above; format: biochemical
Sequence of PAK3 (O75914 whole entry): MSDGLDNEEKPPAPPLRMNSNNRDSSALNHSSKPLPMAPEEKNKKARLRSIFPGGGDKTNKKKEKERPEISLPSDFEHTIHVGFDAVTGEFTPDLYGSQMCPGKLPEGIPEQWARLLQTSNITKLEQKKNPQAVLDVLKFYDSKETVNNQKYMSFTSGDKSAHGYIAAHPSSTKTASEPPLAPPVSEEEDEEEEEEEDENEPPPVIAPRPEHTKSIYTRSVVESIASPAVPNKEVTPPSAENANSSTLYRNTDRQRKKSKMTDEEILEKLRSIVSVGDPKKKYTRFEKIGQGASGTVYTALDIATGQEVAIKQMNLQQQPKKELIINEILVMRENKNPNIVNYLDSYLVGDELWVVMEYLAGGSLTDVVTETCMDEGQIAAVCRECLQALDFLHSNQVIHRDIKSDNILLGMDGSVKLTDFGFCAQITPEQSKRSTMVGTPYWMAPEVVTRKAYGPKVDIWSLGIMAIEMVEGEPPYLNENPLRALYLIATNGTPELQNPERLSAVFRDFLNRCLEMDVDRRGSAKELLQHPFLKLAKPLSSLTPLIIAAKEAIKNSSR
Outline: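 Fluorescence-based development format: after a 60-min room-temperature kinase reaction and 60-min protease development, percent phosphorylation of Ser/Thr 20 peptide calculated via phosphopeptide controls. Buffer 50 mM HEPES pH 7.5, 10 mM MgCl2, 1 mM EGTA, 0.01% BRIJ-35; compounds at 1% DMSO, 10-point 3-fold dilution series.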

PAK4 = PAK4 (Homo sapiens, UniProt O96013); assay: as above; format: biochemical
Sequence of PAK4 (O96013 whole entry): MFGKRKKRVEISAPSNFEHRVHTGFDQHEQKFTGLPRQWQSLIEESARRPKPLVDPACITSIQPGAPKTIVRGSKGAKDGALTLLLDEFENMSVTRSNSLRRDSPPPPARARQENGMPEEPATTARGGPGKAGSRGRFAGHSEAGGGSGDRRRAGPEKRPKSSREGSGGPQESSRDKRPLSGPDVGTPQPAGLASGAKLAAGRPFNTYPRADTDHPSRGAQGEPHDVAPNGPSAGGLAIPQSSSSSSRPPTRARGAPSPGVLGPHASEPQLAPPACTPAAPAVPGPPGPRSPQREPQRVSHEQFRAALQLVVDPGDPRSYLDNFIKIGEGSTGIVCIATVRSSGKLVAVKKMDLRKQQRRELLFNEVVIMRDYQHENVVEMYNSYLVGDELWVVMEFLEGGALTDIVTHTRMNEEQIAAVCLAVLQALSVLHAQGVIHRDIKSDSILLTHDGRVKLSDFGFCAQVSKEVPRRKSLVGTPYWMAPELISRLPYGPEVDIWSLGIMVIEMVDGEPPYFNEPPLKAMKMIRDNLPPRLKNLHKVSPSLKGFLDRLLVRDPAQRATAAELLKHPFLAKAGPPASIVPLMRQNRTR
Outline: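 Ten-point, 3-fold compound series (1% DMSO) incubated 1 h at room temperature with PAK4 (0.1-0.75 ng) and 2 μM Ser/Thr 20 peptide, HEPES pH 7.5 buffer with MgCl2, EGTA, BRIJ-35. Development reagent cleaves non-phosphorylated peptide; fluorescence emission ratio gives % phosphorylation, fitted sigmoidally for IC50.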

## CCn1c(=O)c(-c2ccc(-c3cccnc3F)cc2Cl)cc2cnc(Nc3ccc(N4CCN(C)CC4)cc3)nc21 [Example 33]
Nf2−/− SC4 cells
  cell number compared to DMSO control treated cells: reduction in cell number
[1]
  growth (%) with increasing concentration: the growth (%) of the cells reduced
EBC-1 cells
  growth (%) with increasing concentration: the growth (%) decreased
NCI-H520 cells
  growth (%) with increasing concentration: the growth (%) decreased
SK-MES-1 cells
  growth (%) with increasing concentration: the growth (%) decreased

## CCn1c(=O)c(-c2ccc(-c3cncs3)cc2Cl)cc2cnc(Nc3ccc(N4CCN(C)CC4)cc3)nc21 [Example 84]
[2]
  average tumor weight versus vehicle control treated mice: less than the average tumor weight of the vehicle control treated mice
Nf2−/− SC4 cells
  cell number compared to DMSO control treated cells: reduction in cell number
[1]
  growth (%) with increasing concentration: the growth (%) of the cells reduced

## CCn1c(=O)c(-c2ccc(-c3cnc(C)s3)cc2Cl)cc2cnc(Nc3ccc(C4CCN(C)CC4)cc3)nc21 [Example 101]
NF2−/− Schwannoma cells
  cell number compared to DMSO control treated cells: reduction in cell number

## CCn1c(=O)c(-c2ccc(-c3noc(C)n3)cc2Cl)cc2cnc(Nc3ccc(C4CCN(C)CC4)cc3)nc21 [Example 122]
NF2−/− Schwannoma cells
  cell number compared to DMSO control treated cells: reduction in cell number
[1]
  growth (%) with increasing concentration: the growth (%) of the cells reduced
EBC-1 cells
  growth (%) with increasing concentration: the growth (%) decreased
NCI-H520 cells
  growth (%) with increasing concentration: the growth (%) decreased
SK-MES-1 cells
  growth (%) with increasing concentration: the growth (%) decreased

## CCn1c(=O)c(-c2ccc(-c3cncc(C)n3)cc2Cl)cc2cnc(Nc3ccc(C4CCN(C)CC4)cc3)nc21 [Example 190]
NF2−/− Schwannoma cells
  cell number compared to DMSO control treated cells: reduction in cell number

## CCn1c(=O)c(-c2ccc(-c3cccnc3)cc2Cl)cc2cnc(Nc3ccc(N4CCN(C(C)C)CC4)cc3)nc21 [drawing 650]
PAK1
  IC50: < 0.05 µM
PAK2 (PAK65)
  IC50: < 0.05 µM
PAK3
  IC50: < 0.05 µM
PAK4
  IC50: ≥ 5 µM

## CCn1c(=O)c(-c2ccc(-c3cccnc3)cc2Cl)cc2cnc(Nc3ccc(N4CCN(C(C)C)CC4)cc3)nc21 [drawing 655]
PAK1
  IC50: < 0.05 µM
PAK2 (PAK65)
  IC50: < 0.05 µM
PAK3
  IC50: < 0.05 µM
PAK4
  IC50: 0.05 to 0.5 µM
